Where a name gives a salt, the structure may show the parent alone. Read-outs that look alike come from different tables or passages of the source.
Key:
[1] = tested on: Macrophage inhibitory cytokine‐1 (MIC‐1); experiment: Serum MIC‐1 pharmacodynamics; type: in vivo, human; details: monotherapy, all cohorts
Excerpt: Macrophage inhibitory cytokine‐1 (MIC‐1) is a target of p53 transcriptional activation,[25] and, therefore, change in serum MIC‐1 levels was included as a PD endpoint, measured at multiple time points.

[2] = Milademetan plasma pharmacokinetics; type: in vivo, human; set-up: AUC0‐24h versus dose, power model estimated slope: unit not given beside the values; details: for half-life / Tmax: human, plasma; for half-life: read-out: geometric mean t1/2
Excerpt: For PK analysis, blood samples were collected at frequent intervals during Cycle 1 Days 1 and 15 in Part 1 (monotherapy), and on Day 5 or 8 (according to dosing schedule) and Day 14 in Part 1A, with sparse sampling on other days.

[3] = tested on: relapsed or refractory AML; experiment: Treatment response in participants with AML (2017 European Leukemia Net recommendations); type: in vivo, human
Procedure: (§1) Treatment efficacy was assessed according to the 2017 European Leukemia Net recommendations for AML[23] and the 2006 International Working Group response criteria for MDS.[24] In participants with AML, efficacy outcomes included complete remission (CR), CR with incomplete blood count recovery (CRi), composite complete remission (CRc; CR + CRi), morphologic leukemia‐free state (MLFS), partial remission (PR), overall response rate (CRc + MLFS+PR), stable disease (SD), and treatment failure. Bone marrow biopsies/aspirates were obtained from all participants with AML on Day 1 of Cycles 2 and 3 and once every cycle until response and on Day 1 of Cycles 6, 9, and 12 in responding participants.

[4] = tested on: patients with solid tumors or lymphomas; details: cited from earlier work
[5] = tested on: high‐risk MDS; experiment: Treatment response in participants with high‐risk MDS (2006 International Working Group criteria); type: in vivo, human; details: Full Analysis Set
Procedure: as §1

[6] = 160 mg QD for 15 days in Cycle 1
[7] = monotherapy, all studied doses, Cycle 1 Day 1

SMILES: CC1(C)CCC2(CC1)N[C@@H](C(=O)N[C@@H]1CC[C@@H](C(N)=O)OC1)[C@H](c1ccnc(Cl)c1F)[C@]21C(=O)Nc2cc(Cl)ccc21 [Milademetan monotherapy, milademetan tosylate hydrate]
- serum MIC‐1, mean (SD) fold change from baseline ([1]; Cycle 1 Day 8 (N = 53)): 6.4 (5.8) fold change
- serum MIC‐1, mean (SD) fold change from baseline ([1]; Cycle 1 Day 15 (N = 49)): 5.1 (4.2) fold change
- serum MIC‐1, mean (SD) fold change from baseline ([1]; Cycle 1 Days 21 through 22): 4.1 (3.3) fold change
- accumulation ratio (AR) based on AUC0‐24h [2, 6]: 1.29
- accumulation ratio (AR) based on C max [2, 6]: 1.21
- Increase of C max, AUC0‐24h and AUClast with dose ([2]; both monotherapy and combination arms): dose‐proportional
- half-life ([2]; monotherapy, Cycle 1 Day 15): 7.2 to 25.2 h
- Tmax ([2]; Cohorts 1 through 3 (60, 90, 120 mg QD 21/28)): ~3 h
- Tmax [2, 7]: 3 to 4.6 h
- half-life [2, 7]: 12.9 to 24.6 h
- C max versus dose, power model estimated slope ([2]; monotherapy, Cycle 1 Day 1, 90% CI 0.44–1.08): 0.76
- AUC0‐24h versus dose, power model estimated slope ([2]; monotherapy, Cycle 1 Day 1, 90% CI 0.49–1.15): 0.82
- Time at which steady state is reached ([2]; repeated daily doses): ≤ 8 days
- AML: CR ([3]; Full Analysis Set): 2 (4%) n (%)
- AML: CRi ([3]; Full Analysis Set): 1 (2%) n (%)
- Participants who achieved CR with incomplete blood count recovery (CRi) ([3]; as given in the abstract): 2.1%
- Participants who achieved complete remission (CR) ([3]; as given in the abstract): 4.2%
- Participants with remission ([3]; as summed in the discussion): 4 n (%)
- DLT observed ([4]; 120 mg QD 21/28, phase 1 studies in the United States and Japan): thrombocytopenia and nausea
- MTD ([4]; US study in solid tumors, QD 3/14 × 2 schedule): 260 mg
- MDS: Marrow CR [5]: 1 (11%) n (%)
- MDS: SD [5]: 2 (22%) n (%)

— paper PMC11258486, “Phase 1 dose escalation study of the MDM2 inhibitor milademetan as monotherapy and in combination with azacitidine in patients with myeloid malignancies” (Cancer Medicine, 2024)
